This data set is described as follows: GHS categories as the set defines them, by LD50: 1 up to 5, 2 up to 50, 3 up to 300, 4 up to 2000, 5 above 2000 mg/kg. Particulars: rat; in vivo; po.
In turn, `CO[C@H]1C=CO[C@@]2(C)Oc3c(C)c(O)c4c(O)c(c(/C=N/N5CCN(C6CCCC6)CC5)c(O)c4c3C2=O)NC(=O)C(C)=CC=C[C@H](C)[C@H](O)[C@@H](C)[C@@H](O)[C@@H](C)[C@H](OC(C)=O)[C@@H]1C` had a GHS category of 5.

In turn, `COc1ccccc1OC(=O)Cc1ccc(C(=O)c2ccc(C)cc2)n1C` yielded a GHS category of 4.

`COc1ccc([C@@H]2Sc3ccccc3NC(=O)[C@@H]2O)cc1` gave a GHS category of 5.

Regarding `CC(C)=CCC(C#N)(CCN1CCCC1)c1cccc2ccccc12` (stereo not given), the GHS category came out at 4.

`CCC[C@H](N[C@@H](C)C(=O)N1[C@H](C(=O)O)C[C@@H]2CCCC[C@@H]21)C(=O)OCC` gave a GHS category of 5.

Consider `CNC(=O)c1cc(C(O)CNC(C)(C)CCN2C(=O)OC(C)(C)c3ccccc32)ccc1O` (stereo not given), for which the GHS category was determined as 4.

In turn, `CCCNC(=O)Cc1cnc2cccc(C)n2c1=O` gave a GHS category of 3.

In the case of `CO[C@H]1C=CO[C@@]2(C)Oc3c(C)c(O)c4c(c3C2=O)C2=NC3(CCN(CC(C)C)CC3)NC2=C(NC(=O)C(C)=CC=C[C@H](C)[C@H](O)[C@@H](C)[C@@H](O)[C@@H](C)[C@H](OC(C)=O)[C@@H]1C)C4=O`, the GHS category was 5.

`CCC(c1cccc(O)c1)C(CC)c1cccc(O)c1` (stereo not given) showed a GHS category of 5.

In turn, `CCCCCCCCCC(=O)N(C)C` registered a GHS category of 5.

As to `O=C1CCCCCCCCCCCCCCO1`, the GHS category was determined as 5.

`CNc1ccc(C(=O)c2ccccc2)cc1O` returned a GHS category of 5.

On to `COc1cc(CC2NCCc3cc(O)c(O)cc32)cc(OC)c1OC` (stereo not given), for which the GHS category came to 5.

Take `NC(=O)Oc1ccc(Br)cc1C(=O)Oc1ccccc1`: the GHS category is listed as 5.

Compound `CN1C(C(=O)Nc2ccccn2)=C(OP2(=O)OCCCO2)c2sc(Cl)cc2S1(=O)=O` yielded a GHS category of 2.

As for `Cc1cc(C)cc(N2C(=O)c3ccc4c5ccc6c7c(ccc(c8ccc(c3c48)C2=O)c75)C(=O)N(c2cc(C)cc(C)c2)C6=O)c1`, the GHS category turned out to be 5.

For `CSc1nc2cc(Cl)ccc2o1`, the GHS category is reported as 5.

In the case of `Nc1ncnc2c1ncn2[C@@H]1O[C@H](COP(=O)(O)OP(=O)(O)OP(=O)(O)O)[C@@H](O)[C@H]1O`, the GHS category was determined as 5.

In turn, `C1CCCCCC2=C(CCCC1)CCCO2` came in with a GHS category of 5.

The compound `C#CCN1C(=O)COc2cc(F)c(N3C(=O)C4=C(CCCC4)C3=O)cc21` yielded a GHS category of 5.

In turn, `CCCC(=O)OC(C)(C)Cc1ccccc1` returned a GHS category of 5.

As to `CN1C(=O)C(C)(C)Oc2cc(C(=O)c3ccccc3)ccc21`, the GHS category was 5.

The compound `COCc1c(Cc2ccc(-c3ccccc3-c3nn[nH]n3)cc2)c(=O)nc2nc[nH]n12` yielded a GHS category of 4.

Regarding `CCNC(=O)NCc1cccc(Cl)c1`, the GHS category is given as 5.

Consider `CC(C)=CCC/C(C)=C\COC(=O)C(C)C`, for which the GHS category was 5.

With `COc1nn(-c2cccc(C(F)(F)F)c2)c2ncccc12`, the GHS category is given as 4.

In turn, `CCCCCCCCCCCCCC` yielded a GHS category of 5.

For `CCCCCCCCC=CCCCCCCCC(=O)OCC(COC(=O)CCCCCCCC=CCCCCCCCC)(COC(=O)CCCCCCCC=CCCCCCCCC)COC(=O)CCCCCCCC=CCCCCCCCC` (stereo not given), the GHS category was found to be 5.

The compound `Cc1ccc(S(=O)(=O)NCCCCCC(=O)O)cc1` yielded a GHS category of 5.

In the case of `Fc1ccccc1C1=NCC(=S)N(CC(F)(F)F)c2ccc(Cl)cc21`, the GHS category came out at 5.

As for `CC(C)CC(C)(C)C`, the GHS category was 5.

`CCO[Si](CCCCl)(OCC)OCC` yielded a GHS category of 5.

`N#Cc1ccccc1-c1ccc(CBr)cc1` registered a GHS category of 5.

As for `NC(=O)[C@@H]1C[C@]2(NC(=O)NC2=O)c2cc(F)ccc2O1`, the GHS category is 5.

Turning to `O=c1c2cc(Cl)ccc2[nH]c2cc3c(=O)c4cc(Cl)ccc4[nH]c3cc12`, the GHS category turned out to be 5.

`ClC1=C(Cl)C2(Cl)C3COCC3C1(Cl)C2(Cl)Cl` (stereo not given) came in with a GHS category of 5.

Consider `CCOC(=O)[C@H](CCc1ccccc1)N[C@@H](C)C(=O)N1CC2(C[C@H]1C(=O)O)SCCS2`, for which the GHS category came out at 5.

As to `COc1ccc(CCC(C)=O)cc1`, the GHS category is 5.

Regarding `CCCCCCCCCCCCCCCCCC(=O)OC[C@@H](OC(=O)CCCCCCCCCCCCCCCCC)[C@H]1OC[C@H](O)[C@H]1OC(=O)CCCCCCCCCCCCCCCCC`, the GHS category is given as 5.

Compound `COc1ccccc1C(=O)NS(=O)(=O)c1ccc(C(=O)NC2CC2)cc1` came in with a GHS category of 5.

Compound `CCCCCCCCCCCCCCOC(=O)OOC(=O)OCCCCCCCCCCCCCC` gave a GHS category of 5.

Consider `O=C(O)c1ccc(NC(=O)[C@H](Cc2ccc(O)cc2)NC(=O)c2ccccc2)cc1`, for which the GHS category came to 5.

For `CC=COC`, the GHS category was found to be 5.

`CCCc1nc2ccnn2c(N2CCOCC2)c1Cc1ccc(-c2ccccc2-c2nn[nH]n2)cc1`: the GHS category came to 4.

On to `CSC(=O)c1cccc2nnsc12`, for which the GHS category came out at 5.

The compound `CSC(C)=NOC(=O)N(C)SN(C)C(=O)Oc1ccccc1OC(=O)N(C)SN(C)C(=O)ON=C(C)SC` gave a GHS category of 4.

`Cc1cc(O)c2c(O)c(-c3ccc4cc(C)cc(O)c4c3O)ccc2c1`: the GHS category was found to be 5.

Turning to `N=c1ccn2c(n1)O[C@H]1[C@H](O)[C@@H](CO)O[C@H]12`, the GHS category was 5.

As to `CN1C(C(=O)Nc2ccccc2)=C(O)c2ccccc2S1(=O)=O`, the GHS category is on record as 5.

The compound `COc1ccc(C(=O)C2CC2)cc1` displayed a GHS category of 4.

Regarding `CC=CC=CCOC(=O)CCC`, the GHS category was 5.

In turn, `COc1cc(OC)c(NC(=O)c2cc3ccccc3cc2O)cc1Cl` came in with a GHS category of 5.

In turn, `C=CCCCCCCCCCO` had a GHS category of 5.

Consider `CCCOC(=O)[C@H](C)O`, for which the GHS category was determined as 5.

For `CC(C)CC1(C)OCC(CO)O1` (stereo not given), the GHS category is listed as 5.

As to `Clc1ccc(CSc2ccc(Cl)cc2)cc1`, the GHS category stood at 5.

The compound `CC(C)=CCC/C(C)=C/COC(=O)C(C)C` came in with a GHS category of 5.

As to `FC(F)(F)C(F)(F)C(F)(F)C(F)(F)C(F)(F)C(F)(F)F`, the GHS category is on record as 5.

Compound `C#CCON=CC1=CCCN(C)C1` displayed a GHS category of 3.

In turn, `O=C=Nc1cccc2ccccc12` gave a GHS category of 5.

In turn, `CC(C)(C)N(Sc1nc2ccccc2s1)Sc1nc2ccccc2s1` registered a GHS category of 5.

Regarding `CCO[Si](CN(CC)CC)(OCC)OCC`, the GHS category is 5.

`CCO[Si](OCC)(OCC)N(CC)CC` came in with a GHS category of 4.

In turn, `COc1ccc2[nH]c(C)c(CC(=O)OCC(=O)O)c2c1` gave a GHS category of 5.

For `NCCCC[C@H](OP(=O)(O)CCCCc1ccccc1)C(=O)N1CCC[C@H]1C(=O)O`, the GHS category is 5.

In turn, `CC(C)(C)c1ccc(N(CCN2CCCCC2)c2cccc(Cl)c2)cc1` came in with a GHS category of 5.

In turn, `N#Cc1c[nH]cc1-c1cccc2c1OC(F)(F)O2` came in with a GHS category of 5.

In the case of `CCCOC(=O)c1sc(C(=O)OCCC)c(O)c1O`, the GHS category is 4.

Compound `O=C(Nc1ccccc1SSc1ccccc1NC(=O)c1ccccc1)c1ccccc1` returned a GHS category of 5.

`COC(=O)c1ccc(C(=O)Nc2cc(Cl)ccc2Cl)cc1N`: the GHS category came to 4.

In turn, `Clc1ccc(CN2CCN=C2c2ccccc2)cc1` had a GHS category of 4.

Consider `Brc1c(Br)c(Br)c(CCc2c(Br)c(Br)c(Br)c(Br)c2Br)c(Br)c1Br`, for which the GHS category was found to be 5.

`COC1=CC(=O)C[C@@H](C)[C@]12Oc1c(Cl)c(OC)cc(OC)c1C2=O` showed a GHS category of 5.

As for `Cc1cccc(C)c1NC(=O)CN1CCN(CCCC(c2ccc(F)cc2)c2ccc(F)cc2)CC1`, the GHS category turned out to be 5.

In the case of `CCn1ccc(=O)n2nc(-c3cccs3)cc12`, the GHS category is given as 4.

Compound `FC(F)CCl` had a GHS category of 5.

`Cc1cc(O)cc(C)c1S(C)(=O)=O` gave a GHS category of 4.

In turn, `COc1ccc(-c2ccc(C#N)cc2)cc1` had a GHS category of 5.

For the compound `Cc1ccccc1OP(Oc1ccccc1C)Oc1ccccc1C`, the GHS category came out at 4.

Compound `CC(C)C1=CC23CCC4C(C)(C(=O)N5CCOCC5)CCCC4(C)C2CC1C1C(=O)OC(=O)C13` (stereo not given) returned a GHS category of 5.

For `O=[N+]([O-])c1ccc(OCC2CO2)cc1` (stereo not given), the GHS category is given as 5.

For the compound `C=COCCOCCOC(=O)C=C`, the GHS category stood at 4.

In the case of `C=C(C)C(=O)OCCOCCOCCCC`, the GHS category is given as 5.

Take `CCCCOC(=O)c1ccccc1N=Nc1c(O)c(C(=O)Nc2ccc3[nH]c(=O)[nH]c3c2)cc2ccccc12`: the GHS category is 5.

The compound `CCOC(=O)C(SP(=S)(OC)OC)C(SP(=S)(OC)OC)C(=O)OCC` (stereo not given) showed a GHS category of 4.

`CS(=O)(=O)c1ccc(F)c(C(=O)O)c1`: the GHS category came out at 5.

For `CCCCOC(=O)CC(O)C(=O)OCCCC` (stereo not given), the GHS category stood at 5.

`COc1cc(OC)nc(NC(=O)NS(=O)(=O)c2c(C(=O)O)cnn2C)n1` registered a GHS category of 5.

For `CCN(CCCCCCOC(=O)c1ccc(OC)c(OC)c1)C1CCc2ccccc2C1` (stereo not given), the GHS category was 5.

Regarding `CC(C)C1OCCN1CCO` (stereo not given), the GHS category is listed as 4.

On to `OC1CCC(N2CCCCC2)CC1` (stereo not given), for which the GHS category stood at 5.

The compound `CCC1(CC)C(=O)N2Cc3ccccc3CN2C1=O` came in with a GHS category of 5.

`CC(C)c1cc(C(C)C)cc(C(C)C)c1` gave a GHS category of 5.

For the compound `C[S+](C)CC[C@@H](N)C(=O)O` (racemic), the GHS category was 5.

As for `O=C1c2ccc(Br)cc2C(=O)C1(Br)c1ccc2ccccc2c1` (stereo not given), the GHS category stood at 5.

`CCCCC(CC)C(=O)OC` (stereo not given) had a GHS category of 5.

In the case of `COc1ccccc1NC(=O)c1cc2ccccc2cc1O`, the GHS category is 5.

In turn, `N[C@@H](Cc1c[nH]c2ccccc12)C(=O)O` yielded a GHS category of 5.

Compound `CC/C(=C(/CC)c1ccc(O)cc1)c1ccc(O)cc1` came in with a GHS category of 5.

On to `CC1(C)[C@H](C(=O)O[C@H](C#N)c2cccc(Oc3ccccc3)c2)[C@@H]1/C=C\C(=O)OC(C(F)(F)F)C(F)(F)F`, for which the GHS category was determined as 5.
